Experimental findings from patent publication US9956293B2, “Targeted therapeutics” (Madrigal Pharmaceuticals, Inc., priority 2014, dated 2018) are described below.

Molecules are shown by their SMILES. pIC50: −log10 of the molar value.

The first experiment concerns HER2. Kind of experiment: HER2 degradation assay with BT-474 cell line (Example 12, FACS). Type of experiment: cell-based. The settings on record: Homo sapiens, BT-474; SDC-TRAPs of the 52nd table.
`CCNC(=O)c1nnc(-c2cc(C(C)C)c(O)cc2O)n1-c1ccc(Oc2ccc(C(=O)NC(Cc3ccccc3)C(=O)Nc3cc(-c4cnoc4-c4cc(OC)c(OC)c(OC)c4)ccc3OC)cc2)cc1` (stereo not shown) [SDC-TRAP-0158, 5-(2,4-dihydroxy-5-isopropylphenyl)-N-ethyl-4-(4-(4-((1-((2-methoxy-5-(5-(3,4,5-trimethoxyphenyl)isoxazol-4-yl)phenyl)amino)-1-oxo-3-phenylpropan-2-yl)carbamoyl)phenoxy)phenyl)-4H-1,2,4-triazole-3-carboxamide]: the pIC50 (as a rule, −log10 of the IC50, conventionally taken in molar units) was less than 5.30.

Staying with this experiment, now noted: Homo sapiens; BT-474 cells.
Compound `CC(C)c1cc(-c2nnc(O)n2-c2ccc(N3CCN(C(=O)c4ccc(COC(=O)Nc5cccc6c5CN(C5CCC(=O)NC5=O)C6=O)cc4)CC3)cc2)c(O)cc1O` (stereo not shown) [SDC-TRAP-0156, 4-(4-(4-(3-(2,4-Dihydroxy-5-isopropylphenyl)-5-hydroxy-4H-1,2,4-triazol-4-yl)phenyl)piperazine-1-carbonyl)benzyl (2-(2,6-dioxopiperidin-3-yl)-1-oxoisoindolin-4-yl)carbamate] gave a pIC50 of 5.46. Still for that read-out and setting: to `CC(C)c1cc(-c2nnc(O)n2-c2ccc(CN3CCN(C(=O)c4ccc(COC(=O)Nc5cccc6c5CN(C5CCC(=O)NC5=O)C6=O)cc4)CC3)c(F)c2)c(O)cc1O` (stereo not shown) [SDC-TRAP-0157, 4-(4-(4-(3-(2,4-dihydroxy-5-isopropylphenyl)-5-hydroxy-4H-1,2,4-triazol-4-yl)-2-fluorobenzyl)piperazine-1-carbonyl)benzyl (2-(2,6-dioxopiperidin-3-yl)-1-oxoisoindolin-4-yl)carbamate] belongs 6.16; to `CC(C)c1cc(-c2nnc(O)n2-c2ccc(CN3CCN(C(=O)c4cnc(C(=O)Nc5cccc6c5CN(C5CCC(=O)NC5=O)C6=O)cn4)CC3)c(F)c2)c(O)cc1O` (stereo not shown) [SDC-TRAP-0160, 5-(4-(4-(3-(2,4-dihydroxy-5-isopropylphenyl)-5-hydroxy-4H-1,2,4-triazol-4-yl)-2-fluorobenzyl)piperazine-1-carbonyl)-N-(2-(2,6-dioxopiperidin-3-yl)-1-oxoisoindolin-4-yl)pyrazine-2-carboxamide], 6.62; to `CCNC(=O)c1nnc(-c2cc(C(C)C)c(O)cc2O)n1-c1ccc(CN2CCC(C(=O)N[C@H](C(=O)Nc3cccc4c3CN(C3CCC(=O)NC3=O)C4=O)C(C)C)CC2)cc1` (stereo partly drawn) [SDC-TRAP-0163, 1-(4-(3-(2,4-dihydroxy-5-isopropylphenyl)-5-(ethylcarbamoyl)-4H-1,2,4-triazol-4-yl)benzyl)-N-((2S)-1-((2-(2,6-dioxopiperidin-3-yl)-1-oxoisoindolin-4-yl)amino)-3-methyl-1-oxobutan-2-yl)piperidine-4-carboxamide], 6.05. As to `CCNC(=O)c1nnc(-c2cc(C(C)C)c(O)cc2O)n1-c1ccc(CN2CCC(C(=O)N3CCC[C@H]3C(=O)Nc3cccc4c3CN(C3CCC(=O)NC3=O)C4=O)CC2)cc1` (stereo partly drawn) [SDC-TRAP-0164, 5-(2,4-dihydroxy-5-isopropylphenyl)-4-(4-((4-((2S)-2-((2-(2,6-dioxopiperidin-3-yl)-1-oxoisoindolin-4-yl)carbamoyl)pyrrolidine-1-carbonyl)piperidin-1-yl)methyl)phenyl)-N-ethyl-4H-1,2,4-triazole-3-carboxamide], the pIC50 was 6.31.

In turn, `CCNC(=O)c1nnc(-c2cc(C(C)C)c(O)cc2O)n1-c1ccc(C(=O)N[C@@H](C)C(=O)Nc2cccc3c2CN(C2CCC(=O)NC2=O)C3=O)cc1` (stereo partly drawn) [SDC-TRAP-0166, 5-(2,4-dihydroxy-5-isopropylphenyl)-4-(4-(((2S)-1-((2-(2,6-dioxopiperidin-3-yl)-1-oxoisoindolin-4-yl)amino)-1-oxopropan-2-yl)carbamoyl)phenyl)-N-ethyl-4H-1,2,4-triazole-3-carboxamide] showed a pIC50 of less than 5.30. On the same count and under the same terms, to `CC(C)c1cc(-c2nnc(O)n2-c2ccc(CN3CCN(c4cnc(C(=O)Nc5cccc6c5CN(C5CCC(=O)NC5=O)C6=O)cn4)CC3)c(F)c2)c(O)cc1O` (stereo not shown) [SDC-TRAP-0170, 5-(4-(4-(3-(2,4-dihydroxy-5-isopropylphenyl)-5-hydroxy-4H-1,2,4-triazol-4-yl)-2-fluorobenzyl)piperazin-1-yl)-N-(2-(2,6-dioxopiperidin-3-yl)-1-oxoisoindolin-4-yl)pyrazine-2-carboxamide] belongs 6.53; to `CC(C)c1cc(-c2nnc(O)n2-c2ccc(CN3CCN(C(=O)c4ccc(COC(=O)Nc5cccc6c5CN(C5CCC(=O)NC5=O)C6=O)cc4F)CC3)c(F)c2)c(O)cc1O` (stereo not shown) [SDC-TRAP-0174, 4-(4-(4-(3-(2,4-dihydroxy-5-isopropylphenyl)-5-hydroxy-4H-1,2,4-triazol-4-yl)-2-fluorobenzyl)piperazine-1-carbonyl)-3-fluorobenzyl (2-(2,6-dioxopiperidin-3-yl)-1-oxoisoindolin-4-yl)carbamate], 6.16. On the same count and under the same terms, to `CC(C)c1cc(-c2nnc(O)n2-c2ccc(N3CCN(C(=O)c4ccc(COC(=O)Nc5cccc6c5CN(C5CCC(=O)NC5=O)C6=O)cc4)CC3)nc2)c(O)cc1O` (stereo not shown) [SDC-TRAP-0175, 4-(4-(5-(3-(2,4-dihydroxy-5-isopropylphenyl)-5-hydroxy-4H-1,2,4-triazol-4-yl)pyridin-2-yl)piperazine-1-carbonyl)benzyl (2-(2,6-dioxopiperidin-3-yl)-1-oxoisoindolin-4-yl)carbamate] belongs 5.58. Same read-out and setting: the value for `CCNC(=O)c1nnc(-c2cc(C(C)C)c(O)cc2O)n1-c1ccc(C(=O)N2CCN(C(=O)c3ccc(COC(=O)Nc4cccc5c4CN(C4CCC(=O)NC4=O)C5=O)cc3)CC2)cc1` (stereo not shown) [SDC-TRAP-0177, 4-(4-(4-(3-(2,4-dihydroxy-5-isopropylphenyl)-5-(ethylcarbamoyl)-4H-1,2,4-triazol-4-yl)benzoyl)piperazine-1-carbonyl)benzyl (2-(2,6-dioxopiperidin-3-yl)-1-oxoisoindolin-4-yl)carbamate] was 5.36; that for `CCNC(=O)c1nnc(-c2cc(C(C)C)c(O)cc2O)n1-c1ccc(C(=O)N[C@H](C(=O)Nc2cccc3c2CN(C2CCC(=O)NC2=O)C3=O)C(C)C)cc1` (stereo partly drawn) [SDC-TRAP-0188, 5-(2,4-dihydroxy-5-isopropylphenyl)-4-(4-(((2S)-1-((2-(2,6-dioxopiperidin-3-yl)-1-oxoisoindolin-4-yl)amino)-3-methyl-1-oxobutan-2-yl)carbamoyl)phenyl)-N-ethyl-4H-1,2,4-triazole-3-carboxamide] was 5.40. `CCNC(=O)c1nnc(-c2cc(C(C)C)c(O)cc2O)n1-c1ccc(C(=O)N[C@@H](CC(C)C)C(=O)Nc2cccc3c2CN(C2CCC(=O)NC2=O)C3=O)cc1` (stereo partly drawn) [SDC-TRAP-0189, 5-(2,4-dihydroxy-5-isopropylphenyl)-4-(4-(((2S)-1-((2-(2,6-dioxopiperidin-3-yl)-1-oxoisoindolin-4-yl)amino)-4-methyl-1-oxopentan-2-yl)carbamoyl)phenyl)-N-ethyl-4H-1,2,4-triazole-3-carboxamide]: the pIC50 was 5.96. Still for that read-out and setting: the value for `CCNC(=O)c1nnc(-c2cc(C(C)C)c(O)cc2O)n1-c1ccc(C(=O)N2CCC[C@H]2C(=O)Nc2cccc3c2CN(C2CCC(=O)NC2=O)C3=O)cc1` (stereo partly drawn) [SDC-TRAP-0190, 5-(2,4-dihydroxy-5-isopropylphenyl)-4-(4-((2S)-2-((2-(2,6-dioxopiperidin-3-yl)-1-oxoisoindolin-4-yl)carbamoyl)pyrrolidine-1-carbonyl)phenyl)-N-ethyl-4H-1,2,4-triazole-3-carboxamide] was less than 5.30; that for `CCNC(=O)c1nnc(-c2cc(C(C)C)c(O)cc2O)n1-c1ccc(Oc2ccc(C(=O)N[C@@H](CC(C)C)C(=O)Nc3cccc4c3CN(C3CCC(=O)NC3=O)C4=O)cc2)cc1` (stereo partly drawn) [SDC-TRAP-0191, 5-(2,4-dihydroxy-5-isopropylphenyl)-4-(4-(4-(((2S)-1-((2-(2,6-dioxopiperidin-3-yl)-1-oxoisoindolin-4-yl)amino)-4-methyl-1-oxopentan-2-yl)carbamoyl)phenoxy)phenyl)-N-ethyl-4H-1,2,4-triazole-3-carboxamide] was 5.93; that for `CCNC(=O)c1nnc(-c2cc(C(C)C)c(O)cc2O)n1-c1ccc(Oc2ccc(C(=O)N3CCC[C@H]3C(=O)Nc3cccc4c3CN(C3CCC(=O)NC3=O)C4=O)cc2)cc1` (stereo partly drawn) [SDC-TRAP-0192, 5-(2,4-dihydroxy-5-isopropylphenyl)-4-(4-(4-((2S)-2-((2-(2,6-dioxopiperidin-3-yl)-1-oxoisoindolin-4-yl)carbamoyl)pyrrolidine-1-carbonyl)phenoxy)phenyl)-N-ethyl-4H-1,2,4-triazole-3-carboxamide] was less than 5.30. The same measure, in the same setting: the value for `CCNC(=O)c1nnc(-c2cc(C(C)C)c(O)cc2O)n1-c1ccc(CN2CCC(C(=O)N[C@@H](CC(C)C)C(=O)Nc3cccc4c3CN(C3CCC(=O)NC3=O)C4=O)CC2)cc1` (stereo partly drawn) [SDC-TRAP-0193, 1-(4-(3-(2,4-dihydroxy-5-isopropylphenyl)-5-(ethylcarbamoyl)-4H-1,2,4-triazol-4-yl)benzyl)-N-((2S)-1-((2-(2,6-dioxopiperidin-3-yl)-1-oxoisoindolin-4-yl)amino)-4-methyl-1-oxopentan-2-yl)piperidine-4-carboxamide] was 6.58.

`CC(C)c1cc(-c2nnc(O)n2-c2ccc(CN3CCN(C(=O)Cc4ccc(COC(=O)Nc5cccc6c5CN(C5CCC(=O)NC5=O)C6=O)cc4)CC3)c(F)c2)c(O)cc1O` (stereo not shown) [SDC-TRAP-0194, 4-(2-(4-(4-(3-(2,4-dihydroxy-5-isopropylphenyl)-5-hydroxy-4H-1,2,4-triazol-4-yl)-2-fluorobenzyl)piperazin-1-yl)-2-oxoethyl)benzyl (2-(2,6-dioxopiperidin-3-yl)-1-oxoisoindolin-4-yl)carbamate] showed a pIC50 of 5.67. Same read-out and setting: to `CCNC(=O)c1nnc(-c2cc(C(C)C)c(O)cc2O)n1-c1ccc(CN2CCC(C(=O)N(C)CCCOC(=O)Nc3cccc4c3CN(C3CCC(=O)NC3=O)C4=O)CC2)cc1` (stereo not shown) [SDC-TRAP-0231, 3-(1-(4-(3-(2,4-dihydroxy-5-isopropylphenyl)-5-(ethylcarbamoyl)-4H-1,2,4-triazol-4-yl)benzyl)-N-methylpiperidine-4-carboxamido)propyl (2-(2,6-dioxopiperidin-3-yl)-1-oxoisoindolin-4-yl)carbamate] belongs 6.16.
